Our source for the IC50 and Nav1.7/Nav1.3 values is patent US9340590B2 (priority 2011, dated 2016).

Test [1] addresses hNav1.7 (Homo sapiens, UniProt Q15858). The test can be described thus: cell-based. It counts as cell-based. The note with it: IonWorks Quattro; clamped to −110 mV, depolarized to −10 mV, 5 min after compound; n=2; read-out: IWQ Use Nav1.7. (Patch clamp records ionic current or voltage across a cell membrane.)
Test [2] concerns the target hNav1.3 (Homo sapiens, UniProt Q9NY46). The test can be described thus: cell-based. The note with it: for IC50: IonWorks Quattro, hNav1.3, read-out: IWQ Use Nav1.3.

Structures are written as SMILES. Like-named read-outs stand apart in the source and are kept apart here. Positions of bridges follow the written chain, without caps; N, C: chain ends. Residues, ends and D or L forms follow the SMILES beside them.

Chain of hNav1.7 (Q15858 whole entry, looked up): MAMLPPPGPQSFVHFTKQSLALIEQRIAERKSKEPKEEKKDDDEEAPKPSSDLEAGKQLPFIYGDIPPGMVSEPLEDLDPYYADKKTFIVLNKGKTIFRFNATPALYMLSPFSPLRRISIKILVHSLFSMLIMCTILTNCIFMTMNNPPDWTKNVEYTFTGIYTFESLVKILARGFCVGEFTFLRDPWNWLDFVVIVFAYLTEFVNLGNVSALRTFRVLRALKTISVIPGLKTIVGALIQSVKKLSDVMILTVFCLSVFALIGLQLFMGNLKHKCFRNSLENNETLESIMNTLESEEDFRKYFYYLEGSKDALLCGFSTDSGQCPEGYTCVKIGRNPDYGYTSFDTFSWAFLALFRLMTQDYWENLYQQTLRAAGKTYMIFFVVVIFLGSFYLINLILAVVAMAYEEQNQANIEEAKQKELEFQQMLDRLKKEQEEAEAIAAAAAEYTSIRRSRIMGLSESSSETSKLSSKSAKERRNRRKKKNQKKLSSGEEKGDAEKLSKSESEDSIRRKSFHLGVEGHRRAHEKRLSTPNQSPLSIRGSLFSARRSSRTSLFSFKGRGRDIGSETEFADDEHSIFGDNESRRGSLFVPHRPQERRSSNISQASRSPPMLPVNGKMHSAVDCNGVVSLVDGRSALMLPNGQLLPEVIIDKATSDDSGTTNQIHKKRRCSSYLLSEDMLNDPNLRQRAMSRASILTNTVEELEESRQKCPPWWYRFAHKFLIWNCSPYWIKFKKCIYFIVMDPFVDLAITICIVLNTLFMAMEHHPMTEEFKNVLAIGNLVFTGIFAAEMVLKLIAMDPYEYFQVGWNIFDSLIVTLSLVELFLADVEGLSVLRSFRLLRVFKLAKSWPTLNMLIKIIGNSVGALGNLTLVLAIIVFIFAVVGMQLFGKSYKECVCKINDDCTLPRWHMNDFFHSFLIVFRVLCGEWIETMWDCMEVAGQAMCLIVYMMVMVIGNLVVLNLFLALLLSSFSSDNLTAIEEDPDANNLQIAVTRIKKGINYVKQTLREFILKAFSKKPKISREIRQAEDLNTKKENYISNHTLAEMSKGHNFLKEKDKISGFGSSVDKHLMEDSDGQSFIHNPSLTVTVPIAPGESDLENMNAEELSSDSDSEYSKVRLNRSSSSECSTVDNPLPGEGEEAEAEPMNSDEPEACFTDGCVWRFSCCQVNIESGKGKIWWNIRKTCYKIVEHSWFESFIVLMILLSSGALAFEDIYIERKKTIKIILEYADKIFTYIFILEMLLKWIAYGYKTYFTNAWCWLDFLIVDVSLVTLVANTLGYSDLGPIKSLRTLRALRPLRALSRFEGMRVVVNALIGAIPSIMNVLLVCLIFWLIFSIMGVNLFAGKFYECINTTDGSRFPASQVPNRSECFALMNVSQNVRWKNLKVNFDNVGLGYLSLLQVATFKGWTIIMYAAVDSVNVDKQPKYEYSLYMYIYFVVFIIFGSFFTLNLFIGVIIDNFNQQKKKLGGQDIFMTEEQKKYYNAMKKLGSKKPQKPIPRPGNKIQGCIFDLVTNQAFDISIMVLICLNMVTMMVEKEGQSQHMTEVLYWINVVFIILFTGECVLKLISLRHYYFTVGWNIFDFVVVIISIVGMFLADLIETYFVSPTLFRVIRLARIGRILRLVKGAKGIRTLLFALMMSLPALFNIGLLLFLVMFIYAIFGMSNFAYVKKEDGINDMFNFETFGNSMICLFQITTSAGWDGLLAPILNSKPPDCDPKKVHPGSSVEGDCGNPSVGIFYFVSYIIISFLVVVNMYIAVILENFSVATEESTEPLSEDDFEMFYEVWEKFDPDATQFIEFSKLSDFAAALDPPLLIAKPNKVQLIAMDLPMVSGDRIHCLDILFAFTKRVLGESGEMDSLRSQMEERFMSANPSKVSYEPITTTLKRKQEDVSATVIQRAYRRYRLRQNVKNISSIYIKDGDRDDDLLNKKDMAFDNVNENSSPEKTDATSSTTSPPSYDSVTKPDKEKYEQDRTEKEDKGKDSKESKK
Chain of hNav1.3 (Q9NY46 whole entry, looked up): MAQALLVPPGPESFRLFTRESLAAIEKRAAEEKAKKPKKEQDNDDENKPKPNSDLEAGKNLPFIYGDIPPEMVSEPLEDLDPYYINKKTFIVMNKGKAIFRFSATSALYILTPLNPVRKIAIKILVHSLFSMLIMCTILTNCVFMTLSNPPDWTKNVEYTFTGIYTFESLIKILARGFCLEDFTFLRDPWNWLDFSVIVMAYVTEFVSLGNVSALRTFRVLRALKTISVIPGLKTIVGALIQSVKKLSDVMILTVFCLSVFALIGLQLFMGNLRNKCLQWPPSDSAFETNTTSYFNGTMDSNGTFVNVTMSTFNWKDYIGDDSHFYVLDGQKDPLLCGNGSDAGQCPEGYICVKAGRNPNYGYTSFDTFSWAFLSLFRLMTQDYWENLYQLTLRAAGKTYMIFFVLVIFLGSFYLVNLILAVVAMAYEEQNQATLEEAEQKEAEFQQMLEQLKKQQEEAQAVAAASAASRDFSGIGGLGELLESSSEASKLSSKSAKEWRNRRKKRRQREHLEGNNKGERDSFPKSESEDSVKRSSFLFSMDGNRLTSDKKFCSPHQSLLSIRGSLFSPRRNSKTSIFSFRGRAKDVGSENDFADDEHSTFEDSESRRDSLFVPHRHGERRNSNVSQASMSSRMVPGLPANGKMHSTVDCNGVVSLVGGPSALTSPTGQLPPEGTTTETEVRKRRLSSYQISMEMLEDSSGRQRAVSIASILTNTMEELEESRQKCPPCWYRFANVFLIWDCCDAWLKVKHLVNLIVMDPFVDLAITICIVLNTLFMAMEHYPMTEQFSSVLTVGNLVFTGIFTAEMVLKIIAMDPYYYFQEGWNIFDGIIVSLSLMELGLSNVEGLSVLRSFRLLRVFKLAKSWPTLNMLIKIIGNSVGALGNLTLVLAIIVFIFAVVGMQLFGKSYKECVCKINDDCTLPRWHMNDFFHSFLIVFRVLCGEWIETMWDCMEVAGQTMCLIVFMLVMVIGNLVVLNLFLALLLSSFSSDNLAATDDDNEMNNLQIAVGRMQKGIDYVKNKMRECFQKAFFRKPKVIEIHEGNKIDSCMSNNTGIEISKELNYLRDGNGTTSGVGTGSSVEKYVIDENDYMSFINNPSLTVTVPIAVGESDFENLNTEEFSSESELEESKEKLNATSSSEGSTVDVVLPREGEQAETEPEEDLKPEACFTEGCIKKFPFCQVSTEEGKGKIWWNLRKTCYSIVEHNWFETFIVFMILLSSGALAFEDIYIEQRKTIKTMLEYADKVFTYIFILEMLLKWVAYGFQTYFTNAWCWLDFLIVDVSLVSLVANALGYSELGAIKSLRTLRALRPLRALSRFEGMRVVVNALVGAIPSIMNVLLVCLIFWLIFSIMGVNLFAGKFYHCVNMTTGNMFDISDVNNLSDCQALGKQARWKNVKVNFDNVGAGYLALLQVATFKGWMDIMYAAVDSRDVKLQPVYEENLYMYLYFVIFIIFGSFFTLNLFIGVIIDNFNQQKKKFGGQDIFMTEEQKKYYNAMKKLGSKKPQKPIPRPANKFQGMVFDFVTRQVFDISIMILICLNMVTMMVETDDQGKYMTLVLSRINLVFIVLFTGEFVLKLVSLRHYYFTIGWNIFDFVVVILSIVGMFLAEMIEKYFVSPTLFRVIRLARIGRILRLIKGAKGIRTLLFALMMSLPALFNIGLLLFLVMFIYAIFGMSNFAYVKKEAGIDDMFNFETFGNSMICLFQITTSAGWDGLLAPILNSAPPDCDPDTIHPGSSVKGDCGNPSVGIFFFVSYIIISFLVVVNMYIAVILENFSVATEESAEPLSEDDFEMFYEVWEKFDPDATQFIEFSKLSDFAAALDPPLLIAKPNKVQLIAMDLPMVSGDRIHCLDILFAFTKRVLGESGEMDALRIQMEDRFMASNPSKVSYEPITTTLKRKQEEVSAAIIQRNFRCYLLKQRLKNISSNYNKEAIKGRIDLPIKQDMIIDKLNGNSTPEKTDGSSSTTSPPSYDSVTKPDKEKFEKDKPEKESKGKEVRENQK

On to `CC[C@H](C)[C@@H]1NC(=O)[C@@H]2CSSC[C@@H]3NC(=O)[C@H](C(C)C)NC(=O)[C@H](CC(C)C)NC(=O)[C@H](CC(N)=O)NC(=O)[C@@H]4CCCN4C(=O)[C@H](CCCNC(=N)N)NC(=O)[C@H](CSSC[C@H](NC(=O)[C@@H](N)CCC(=O)O)C(=O)N[C@@H](CC(C)C)C(=O)NCC(=O)N[C@@H](Cc4ccccc4)C(=O)N[C@@H](CCSC)C(=O)N[C@@H](CCCNC(=N)N)C(=O)N[C@@H](CCCCN)C(=O)N2)NC(=O)[C@H](CSSC[C@@H](C(=O)N[C@@H](CCCCN)C(=O)N[C@@H](Cc2ccc(O)cc2)C(=O)N[C@H](C(=O)N[C@@H](Cc2ccccc2)C(N)=O)C(C)C)NC(=O)[C@H](Cc2c[nH]c4ccccc24)NC(=O)[C@H](CCCCN)NC(=O)[C@H](Cc2c[nH]cn2)NC(=O)[C@H]([C@@H](C)O)NC(=O)[C@H](CCCNC(=N)N)NC(=O)[C@H](CO)NC3=O)NC(=O)[C@H](CCCCN)NC(=O)[C@H](CC(=O)O)NC(=O)[C@H](CC(N)=O)NC(=O)[C@H](CC(=O)O)NC(=O)[C@@H]2CCCN2C1=O` [SEQ ID NO: 18] (H-ECLGFMRKCIPDNDKCCRPNLVCSRTHKWCKYVF-NH2; disulfide 2-17, 9-23, 16-30), for which the IC50 in test [1] was 220 nM. The same measure, in the same setting: for `CC[C@H](C)[C@@H]1NC(=O)[C@@H]2CSSC[C@@H]3NC(=O)[C@H](C(C)C)NC(=O)[C@H](CC(C)C)NC(=O)[C@H](CC(N)=O)NC(=O)[C@@H]4CCCN4C(=O)[C@H](CCCNC(=N)N)NC(=O)[C@H](CSSC[C@H](NC(=O)[C@@H](N)CC(=O)O)C(=O)N[C@@H](CCC(=O)O)C(=O)NCC(=O)N[C@@H](Cc4ccccc4)C(=O)N[C@@H](CCSC)C(=O)N[C@@H](CCCNC(=N)N)C(=O)N[C@@H](CCCCN)C(=O)N2)NC(=O)[C@H](CSSC[C@@H](C(=O)N[C@@H](CCCCN)C(=O)N[C@@H](Cc2ccc(O)cc2)C(=O)N[C@H](C(=O)N[C@@H](Cc2ccccc2)C(N)=O)C(C)C)NC(=O)[C@H](Cc2c[nH]c4ccccc24)NC(=O)[C@H](CCCCN)NC(=O)[C@H](Cc2c[nH]cn2)NC(=O)[C@H]([C@@H](C)O)NC(=O)[C@H](CCCNC(=N)N)NC(=O)[C@H](CO)NC3=O)NC(=O)[C@H](CCCCN)NC(=O)[C@H](CC(=O)O)NC(=O)[C@H](CC(N)=O)NC(=O)[C@H](CC(=O)O)NC(=O)[C@@H]2CCCN2C1=O` [SEQ ID NO: 19] (H-DCEGFMRKCIPDNDKCCRPNLVCSRTHKWCKYVF-NH2; disulfide 2-17, 9-23, 16-30) the value was 670 nM; for `CC[C@H](C)[C@@H]1NC(=O)[C@@H]2CSSC[C@@H]3NC(=O)[C@H](C(C)C)NC(=O)[C@H](CC(C)C)NC(=O)[C@H](CC(N)=O)NC(=O)[C@@H]4CCCN4C(=O)[C@H](CCCNC(=N)N)NC(=O)[C@H](CSSC[C@H](NC(=O)[C@H](C)N)C(=O)N[C@@H](CC(C)C)C(=O)NCC(=O)N[C@@H](Cc4ccccc4)C(=O)N[C@@H](CCSC)C(=O)N[C@@H](CCCNC(=N)N)C(=O)N[C@@H](CCCCN)C(=O)N2)NC(=O)[C@H](CSSC[C@@H](C(=O)N[C@@H](CCCCN)C(=O)N[C@@H](Cc2ccc(O)cc2)C(=O)N[C@H](C(=O)N[C@@H](Cc2ccccc2)C(N)=O)C(C)C)NC(=O)[C@H](Cc2c[nH]c4ccccc24)NC(=O)[C@H](CCCCN)NC(=O)[C@H](Cc2c[nH]cn2)NC(=O)[C@H]([C@@H](C)O)NC(=O)[C@H](CCCNC(=N)N)NC(=O)[C@H](CO)NC3=O)NC(=O)[C@H](CCCCN)NC(=O)[C@H](CC(=O)O)NC(=O)[C@H](CC(N)=O)NC(=O)[C@H](CC(=O)O)NC(=O)[C@@H]2CCCN2C1=O` [SEQ ID NO: 20] (H-ACLGFMRKCIPDNDKCCRPNLVCSRTHKWCKYVF-NH2; disulfide 2-17, 9-23, 16-30), 100 nM. Still for that read-out and setting: for `CC[C@H](C)[C@@H]1NC(=O)[C@@H]2CSSC[C@@H]3NC(=O)[C@H](C(C)C)NC(=O)[C@H](CC(C)C)NC(=O)[C@H](CC(N)=O)NC(=O)[C@@H]4CCCN4C(=O)[C@H](CCCNC(=N)N)NC(=O)[C@H](CSSC[C@H](NC(=O)[C@@H](N)CC(=O)O)C(=O)N[C@@H](CC(C)C)C(=O)N[C@@H](CCC(=O)O)C(=O)N[C@@H](Cc4ccccc4)C(=O)N[C@@H](CCSC)C(=O)N[C@@H](CCCNC(=N)N)C(=O)N[C@@H](CCCCN)C(=O)N2)NC(=O)[C@H](CSSC[C@@H](C(=O)N[C@@H](CCCCN)C(=O)N[C@@H](Cc2ccc(O)cc2)C(=O)N[C@H](C(=O)N[C@@H](Cc2ccccc2)C(N)=O)C(C)C)NC(=O)[C@H](Cc2c[nH]c4ccccc24)NC(=O)[C@H](CCCCN)NC(=O)[C@H](Cc2c[nH]cn2)NC(=O)[C@H]([C@@H](C)O)NC(=O)[C@H](CCCNC(=N)N)NC(=O)[C@H](CO)NC3=O)NC(=O)[C@H](CCCCN)NC(=O)[C@H](CC(=O)O)NC(=O)[C@H](CC(N)=O)NC(=O)[C@H](CC(=O)O)NC(=O)[C@@H]2CCCN2C1=O` [SEQ ID NO: 24] (H-DCLEFMRKCIPDNDKCCRPNLVCSRTHKWCKYVF-NH2; disulfide 2-17, 9-23, 16-30) the value was 1740 nM. Consider `CC[C@H](C)[C@@H]1NC(=O)[C@@H]2CSSC[C@@H]3NC(=O)[C@H](C(C)C)NC(=O)[C@H](CC(C)C)NC(=O)[C@H](CC(N)=O)NC(=O)[C@@H]4CCCN4C(=O)[C@H](CCCNC(=N)N)NC(=O)[C@H](CSSC[C@H](NC(=O)[C@@H](N)CC(=O)O)C(=O)N[C@@H](CC(C)C)C(=O)NCC(=O)N[C@@H](Cc4ccc(OC)c(OC)c4)C(=O)N[C@@H](CCSC)C(=O)N[C@@H](CCCNC(=N)N)C(=O)N[C@@H](CCCCN)C(=O)N2)NC(=O)[C@H](CSSC[C@@H](C(=O)N[C@@H](CCCCN)C(=O)N[C@@H](Cc2ccc(O)cc2)C(=O)N[C@H](C(=O)N[C@@H](Cc2ccccc2)C(N)=O)C(C)C)NC(=O)[C@H](Cc2c[nH]c4ccccc24)NC(=O)[C@H](CCCCN)NC(=O)[C@H](Cc2c[nH]cn2)NC(=O)[C@H]([C@@H](C)O)NC(=O)[C@H](CCCNC(=N)N)NC(=O)[C@H](CO)NC3=O)NC(=O)[C@H](CCCCN)NC(=O)[C@H](CC(=O)O)NC(=O)[C@H](CC(N)=O)NC(=O)[C@H](CC(=O)O)NC(=O)[C@@H]2CCCN2C1=O` [compound 652], for which the Nav1.7/Nav1.3 in test [2] (ratio of IWQ Use values, Nav1.7 over Nav1.3) stood at 0.8. For `CC[C@H](C)[C@@H]1NC(=O)[C@@H]2CSSC[C@@H]3NC(=O)[C@H](C(C)C)NC(=O)[C@H](CC(C)C)NC(=O)[C@H](CC(N)=O)NC(=O)[C@@H]4CCCN4C(=O)[C@H](CCCNC(=N)N)NC(=O)[C@H](CSSC[C@H](NC(=O)[C@@H](N)CC(=O)O)C(=O)N[C@@H](CC(C)C)C(=O)NCC(=O)N[C@@H](C)C(=O)N[C@@H](CC(C)C)C(=O)N[C@@H](CCCNC(=N)N)C(=O)N[C@@H](CCCCN)C(=O)N2)NC(=O)[C@H](CSSC[C@@H](C(=O)N[C@@H](CCCCN)C(=O)N[C@@H](Cc2ccc(O)cc2)C(=O)N[C@H](C(=O)N[C@@H](Cc2ccccc2)C(N)=O)C(C)C)NC(=O)[C@H](Cc2c[nH]c4ccccc24)NC(=O)[C@H](CCCCN)NC(=O)[C@H](Cc2cnc[nH]2)NC(=O)[C@H]([C@@H](C)O)NC(=O)[C@H](CCCNC(=N)N)NC(=O)[C@H](CO)NC3=O)NC(=O)[C@H](CCCCN)NC(=O)[C@H](CC(=O)O)NC(=O)[C@H](CC(N)=O)NC(=O)[C@H](CC(=O)O)NC(=O)[C@@H]2CCCN2C1=O` [compound 696], the IC50 in test [2] (use-dependent protocol) turned out to be 750 nM. Regarding `CC[C@H](C)[C@@H]1NC(=O)[C@@H]2CSSC[C@@H]3NC(=O)[C@H](C(C)C)NC(=O)[C@H](CC(C)C)NC(=O)[C@H](CC(N)=O)NC(=O)[C@@H]4CCCN4C(=O)[C@H](CCCNC(=N)N)NC(=O)[C@H](CSSC[C@H](NC(=O)[C@@H](N)CC(=O)O)C(=O)N[C@@H](CC(C)C)C(=O)NCC(=O)N[C@@H](C)C(=O)N[C@@H](Cc4ccccc4)C(=O)N[C@@H](CCCNC(=N)N)C(=O)N[C@@H](CCCCN)C(=O)N2)NC(=O)[C@H](CSSC[C@@H](C(=O)N[C@@H](CCCCN)C(=O)N[C@@H](Cc2ccc(O)cc2)C(=O)N[C@H](C(=O)N[C@@H](Cc2ccccc2)C(N)=O)C(C)C)NC(=O)[C@H](Cc2c[nH]c4ccccc24)NC(=O)[C@H](CCCNC(=N)N)NC(=O)[C@H](Cc2cnc[nH]2)NC(=O)[C@H]([C@@H](C)O)NC(=O)[C@H](CCCNC(=N)N)NC(=O)[C@H](CO)NC3=O)NC(=O)[C@H](CCCCN)NC(=O)[C@H](CC(=O)O)NC(=O)[C@H](CC(N)=O)NC(=O)[C@H](CC(=O)O)NC(=O)[C@@H]2CCCN2C1=O` [compound 809] (H-DCLGAFRKCIPDNDKCCRPNLVCSRTHRWCKYVF-NH2; disulfide 2-17, 9-23, 16-30), the IC50 in test [2] (use-dependent block) was determined as 300 nM. Take `CC[C@H](C)[C@@H]1NC(=O)[C@@H]2CSSC[C@@H]3NC(=O)[C@H](C(C)C)NC(=O)[C@H](CC(C)C)NC(=O)[C@H](CC(N)=O)NC(=O)[C@@H]4CCCN4C(=O)[C@H](CCCNC(=N)N)NC(=O)[C@H](CSSC[C@H](NC(=O)[C@@H](N)CC(=O)O)C(=O)N[C@@H](CC(C)C)C(=O)NCC(=O)N[C@@H](C)C(=O)N[C@@H](CC(C)C)C(=O)N[C@@H](CCCNC(=N)N)C(=O)N[C@@H](CCCCN)C(=O)N2)NC(=O)[C@H](CSSC[C@@H](C(=O)N[C@@H](CCCCN)C(=O)N[C@@H](Cc2ccc(O)cc2)C(=O)N[C@H](C(=O)N[C@@H](Cc2ccccc2)C(N)=O)C(C)C)NC(=O)[C@H](Cc2c[nH]c4ccccc24)NC(=O)[C@H](CCCNC(=N)N)NC(=O)[C@H](Cc2cnc[nH]2)NC(=O)[C@H]([C@@H](C)O)NC(=O)[C@H](CCCNC(=N)N)NC(=O)[C@H](CO)NC3=O)NC(=O)[C@H](CCCCN)NC(=O)[C@H](CC(=O)O)NC(=O)[C@H](CC(N)=O)NC(=O)[C@H](CC(=O)O)NC(=O)[C@@H]2CCCN2C1=O` [compound 810] (H-DCLGALRKCIPDNDKCCRPNLVCSRTHRWCKYVF-NH2; disulfide 2-17, 9-23, 16-30): the IC50 in test [2] (use-dependent block) is 200 nM.
